These results are taken from US20110009597A1, “RECOMBINANT GANODERMA LUCIDIUM IMMUNOMODULATORY PROTEIN (rLZ-8) AND USES THEREOF” (priority 2008, published 2011).

In one series the test system is S180 cells. Put plainly: Mouse transplanted S180 subcutaneous tumor inhibition. It counts as in vivo, Mice. Conditions: CTX 20 mg·kg^−1 intraperitoneal. As for the experimental part: (§1) Mice, 18-22 g, males and females were equally divided, provided by Jilin University Laboratory Animal Center; Mice Ehrlich ascites cells strain, provided by our laboratory S180; Cyclophosphamide (CTX), offered by Jiangsu Hengrui Medicine Co., Ltd., lot number: 06101921. S180 ascites tumors and solid tumors in experiment group were divided into normal control group, negative control group, positive control group, rLZ-8 low-dose treatment group (0.25 mg·kg^−1), rLZ-8 medium-dose treatment group (0.5 mg·kg^−1), rLZ-8 high-dose treatment group (1 mg·kg^−1). For each group 10 mice.
(§2) Select well-growing S180 cells, dilute appropriately with sterile saline into a tumor cell suspension, cell counts for 10^7·L^−1, under the right armpit of each mouse inoculated subcutaneously 0.2 ml (except for the normal control group). Treatment after 24 h of vaccination. Normal control group and negative control group were given saline 0.2 ml·each^−l·d^−1, intraperitoneal injection; positive control group were given cyclophosphamide 20 mg·kg^−1, intraperitoneal injection. rLZ-8 treatment groups were given doses of tail venous injection respectively, 0.2 ml·each^−1·d^−1, in 10 consecutive days. Draw blood from orbital venous plexus 10 days before and after medication respectively, sent to Jilin University No. 1 Hospital clinical laboratory to test and analyze the number of WBC. Kill all mice the next day of drug withdrawal at cervical dislocation, dissect anatomically and take out the tumors, weigh tumors, calculate the inhibition rate using the following equation:
Inhibition rate (%)=(average tumore weight of the control group−average tumore weight of the experiment group)/average tumor weight of the control group×100%

Series [1] deals with WBC. The series can be described thus: Number of leukocytes in S180 tumor-bearing mice. Conditions: CTX 20 mg·kg^−1. As for the experimental part:
as §1
as §2, with “Kill all mice the next day of drug withdrawal at cervical dislocation, dissect anatomically and take out the tumors, weigh tumors, calculate the inhibition rate using the following equation:” left out

Series [2] deals with Mouse hepatoma cell strain H22. The series can be described thus: H22 subcutaneous tumor inhibition experiment. Conditions: CTX 20 mg·kg^−1 intraperitoneal. Type of series: in vivo, Mice. As for the experimental part: (§3) Mice, weight 18-22g, males and females were divided equally, from Jilin University Laboratory Animal Center. Mouse hepatoma cell strain H22, offered by our laboratory. Cyclophosphamide (CTX), offered by Jiangsu Hengrui Medicine Co., Ltd., lot number: 06101921.
(§4) H22 hepatoma cells experiment group were divided into normal control group, negative control group, positive control group, rLZ-8 low-dose treatment group (0.25 mg·kg^−1), rLZ-8 medium-dose treatment group (0.5 mg·kg^−1), rLZ-8 high-dose treatment group (1 mg·kg^−1). For each group 10 mice.
H22 subcutaneous tumor tumor inhibition experiment methods: Select well-growing 1-122 cells, dilute appropriately with sterile saline into a tumor cell suspension, cell counts for 10^7·L^−1, under the right armpit of each mouse inoculated subcutaneously 0.2 ml (except for the normal control group). Treatment after 24 h of vaccination. Normal control group and negative control group were given saline 0.2 ml·each^−1·d^−1, intraperitoneal injection; positive control group were given cyclophosphamide 20 mg·kg^−1, 0.2 ml·each^−1·d^−1, intraperitoneal injection. rLZ-8 treatment groups were given doses of tail venous injection respectively, 0.2 ml·each^−1·d^−1, in 10 consecutive days. Draw blood from orbital venous plexus 10 days before and after medication respectively, sent to Jilin University No. 1 Hospital clinical laboratory to test and analyze the number of WBC. Kill all the mice the next day of drug withdrawal at cervical dislocation, dissected anatomically and took out the tumors, weigh tumors, calculated the inhibition rate using the following equation:
Inhibition rate (%)=(average tumore weight of the control group−average tumor weight of the experiment group)/average tumor weight of the control group×100%

Series [3] relates to WBC. The series can be described thus: WBC numbers in H22 tumor-bearing mice. Conditions: CTX 20 mg·kg^−1. As for the experimental part:
as §3, §4
H22 subcutaneous tumor tumor inhibition experiment methods: Select well-growing 1-122 cells, dilute appropriately with sterile saline into a tumor cell suspension, cell counts for 10^7·L^−1, under the right armpit of each mouse inoculated subcutaneously 0.2 ml (except for the normal control group). Treatment after 24 h of vaccination. […] Kill all the mice the next day of drug withdrawal at cervical dislocation, dissected anatomically and took out the tumors, weigh tumors, calculated the inhibition rate using the following equation: […]

The next series has as its system rat myocardial tissues. Put plainly: FITC-rLZ-8 labeling of rat myocardial tissues. It counts as binding. Conditions: FITC-rLZ-8 100 ng·ml^−1, 1 h, 37° C. The method, then:
Leica CM1850 frozen slicer; wistar rat; fluorescence microscope 80i (Nikon); isotonic PBS buffer (pH7.2); fetal bovine serum (FBS, Gibco); FITC-rLZ-8 is prepared by our laboratory. Cut the rats at neck and kill them, and strip the hearts, put them to frozen microtome till the temperature dropped to −20° C. for slicing, hatching for 1 h at 37° C. when the myocaridial and PBS preparation of FITC-rLZ-8 solution (100 ng·ml^−1), observing under fluorescence microscope to observe, and establish a blank control group.

Another series deals with rabbit chondrocytes. The series can be described thus: FITC-rLZ-8 labeling of primary rabbit chondrocytes. Type of series: binding. Conditions: FITC-rLZ-8 0.25 μg·ml^−1, 1 h, 37° C. The method, then:
Japanese white rabbits (male, 2.5 kg) 4; surgical instruments; 025% trypsogen+0.02% EDTA; 0.2% collagenasell; D-Hanks; IMDM medium ([…], vitamin C, double-antibody); 0.025 mg·ml^−1 Poly-lysine solution; sterile water for injection (WFI).
Fix the experiment animals and execute them with air embolism, skinned abdominal in the middle and exposed the limbs, cutting the muscle fascia with scissors, disconnected the backbone from os longum, remove carefully the entire knee, hip and shoulder bones, with a rough pruning, immersed into D-Hanks. Moved the beaker with tissues into the super-clean units, move the tissues after pruning and cleansing into the 2nd sterile D-Hanks cup; assemble the knife, cutting a thin layer of cartilage off, use curved forceps move into the 6 cm culture incubator, washing with D-Hanks three times, discard majority of D-Hanks, cut the cartilage into 1 mm slices with ophthalmic scissors, discard majority of D-Hanks, spoon removing the broken bone vials into a 10 cm^2 culture flask, mix with trypsogen EDTA for digestion, 37° C., 30 min; replace the trypsogen for collagenase, put it into the hatching incubator of 37° C., taking out and shaking 5 min every 1 h, with 4-4.5 h, finish digestion. Prepare it to the cell suspension solution and mix 3 ml IMDM containing FBS 15%, 5×10^4·ml^−1 vaccinated into the culture flask. […]

Another series has as its system HL-60 cells. The series can be described thus: FITC-rLZ-8 labeling of HL-60 cells. Type of series: binding. The method, then:
Fluorescence microscope 80i (Nikon), IMDM cell culture medium (Hyclone), fetal bovine serum (FBS, Gibco), FITC-rLZ-8 and isotonic PBS buffer (pH7.2) Prepared by our laboratory.
Vaccinated the HL-60 by 2×106 inoculation on 24-hole plate, each hole 0.5 ml, with IMDM (2% FBS) culture medium prepared FITC-rLZ-8 for 100 ng·ml^−1, each hole 0.5 ml hatching (37° C.), establish a control group, experiment group 1 h and experiment group 6 h, draw the cells respectively from 1 h and 6 h, mixing into 1.5 ml EP tube, 1000 r·min^−1 centrifuge, clear the supernatant, wash with PBS 3 times, re-suspend after washing.

As for `O=P1(N(CCCl)CCCl)NCCCO1` (stereo not shown) [CTX, Cyclophosphamide, reference compound], in the series on S180 cells, the “Inhibition rate (%)” value was 65.3% and the “Tumor weight” value is given as 0.35 ± 0.02 g. The “Number of leukocytes, 10th day of medication” value in the series with WBC [1] came to 4.41 ± 0.25. Besides, in series [2], the “Inhibition rate (%)” value is reported as 62.5% and the “Tumor weight” value was 0.45 ± 0.02 g. For the same molecule, the “WBC numbers, 10th day of medication” value with WBC [3] was 4.49 ± 0.21.

B1: FITC-rLZ-8: rLZ-8 labelled with Fluorescein-5-Isothiocyanate (FITC) (conjugate, UniProt P14945 2-111, looked up)
Immunomodulatory protein Ling …: SDTALIFRLAWDVKKLSFDYTPNWGRGNPNNFIDTVTFPKVLTDKAYTYRVAVSGRNLGVKPSYAVESDGSQKVNFLEYNSGYGIADTNTIQVFVVDPDTNNDFIIAQWN
modifications: FITC label
Take B1: in the series with rat myocardial tissues, the “fluorescence of myocardial tissues” value is on record as “without visible fluorescence”. In addition, the “fluorescence of rabbit chondrocytes” value in the series with rabbit chondrocytes is “without green fluorescence”. The “cell appearance of HL-60” value in the series on HL-60 cells (FITC-rLZ-8 100 ng·ml^−1, group 6 h) was “agglutination of cells”. Further, the “fluorescence of HL-60 cells” value with HL-60 cells (FITC-rLZ-8 100 ng·ml^−1, incubation of 1 h and 6 h) is “strong green fluorescence”.
